Experimental data taken from patent US20260294867A1, “METHODS FOR WEIGHT LOSS AND/OR REDUCING WEIGHT GAIN” (The Medical College of Wisconsin, Inc., priority 2023, published 2026).

Columns and labels:
Type in all cases: in vivo, C57BL/6J diet-induced obesity (DIO) male mice
[1] = Example 1: fasted blood glucose; settings: 2-way ANOVA of FIG. 4B; reutericyclin 100 μg/kg gavage, semaglutide 1 nmole/kg/day IP
Text: (§1) FIG. 1 depicts the experimental approach for this Example. C57BL/6J diet-induced obesity (DIO) male mice were obtained at 12 weeks of age and housed singly in the MCW animal facility (www.jax.org/jax-mice-and-services/strain-data-sheet-pages/phenotype-information-380050). Mice were maintained on a 60% high fat diet (HFD) (Research Diets D12492) throughout the experiment. Mice were acclimated for 2 weeks prior to treatment with either semaglutide, reutericyclin, both drugs, or neither drug.
(§2) Mice were weight-matched into 4 groups (N=10 per group) and given either reutericyclin via gavage to achieve a dosage of 100 μg/kg or injected intraperitoneally (IP) with semaglutide to administer 1 nmole/kg/day. All mice experienced both gavage and injection with either drug or vehicle. Vehicle for reutericyclin and semaglute are identical: 3.0% DMSO in phosphate buffered saline (PBS).
(§3) The four groups were: the control group (HFD-PBS), which received vehicle only; the HFD-RTC group, which were administered reutericyclin at a dose of 100 μg/kg of body weight in PBS; the HFD-RTC-SemaG group, which received reutericyclin at a dose of 100 μg/kg of body weight and 1 nanomole of semaglutide/kg of body weight in vehicle; and the HFD-SemaG group, which were administered 1 nanomole of semaglutide/kg of body weight in vehicle. […]

[2] = Example 2: feeding efficiency; settings: 2-way ANOVA, days 21-26
Text: (§4) FIG. 5 depicts the experimental approach for this Example, and additional details can be found in Tables 3 and 4 below. C57BL/6J diet-induced obesity (DIO) male mice were obtained at 12 weeks of age and housed singly in the MCW animal facility (https://www.jax.org/jax-mice-and-services/strain-data-sheet-pages/phenotype-information-380050). Mice were maintained on a 60% high fat diet (Research Diets D12492) throughout the experiment. Mice were acclimated for 2 weeks prior to treatment with either semaglutide, reutericyclin (RTC), both drugs, or neither drug.
as §2, with “(PBS). […]” for “(PBS).”
(§5) Mice were weighed daily to assess changes in body mass. […] Feeding efficiency is calculated by measuring the amount of weight gained by each mouse per gram of food consumed over a period of 5 days. Feeding efficiency shown here was calculated over days 21-26. […]

[3] = Example 2: fasted blood glucose at day 27; settings: 4 hours without food
Text: as §4, §2
The four groups of mice were as follows: Group 1 (black) (HFD-PBS) received no drug but experienced gavage and injection; Group 2 (red) (HFD-RTC) received reutericyclin via gavage and experienced injection with vehicle only; Group 3 (green) (HFD-SemaG) received no drug via gavage and experienced injection with semaglutide; and Group 4 (purple) (HFD-RTC-SemaG) received reutericyclin via gavage and experienced injection with semaglutide.
Fasted blood glucose (4 hours without food) was performed with standard glucose test strips. Blood was obtained by a tail prick on day 27 of the experiment.
For each 2-way ANOVA statistical analyses, injection refers to semaglutide, gavage refers to reutericyclin, and interaction refers to the combination of injection and gavage.
FIG. 9 is a bar graph depicting the fasted blood glucose level at day 27 as described in Example 2.

[4] = Example 1: eating behavior, calories ingested per day; settings: 2-way ANOVA of FIG. 4A; reutericyclin 100 μg/kg gavage, semaglutide 1 nmole/kg/day IP
Text: as §1, §2, §3

[5] = Example 2: change in body mass on day 26; settings: 2-way ANOVA
Text: as §4
as §2, with “(PBS). […]” for “(PBS).”
as §5

[6] = Example 2: change in weight at day 46 after withdrawal of the semaglutide; settings: 2-way ANOVA
Text: as §4
as §2, with “(PBS). […]” for “(PBS).”
as §5

For `CCCCCCC/C=C/C(=O)N1C(=O)C(C(C)=O)=C(O)[C@H]1CC(C)C` [reutericyclin, (5R)-1-(2-decenoyl)-2-hydroxy-3-acetyl-5-isobutyl-42-pyrroline-4-one], the “effect on fasting blood glucose” value [1] was “no noted effect”, the “Significant?, feeding efficiency” value [2] was “Yes” and the “% of total variation, feeding efficiency” value ([2]; weight gained per gram of food consumed, gavage = reutericyclin, injection = semaglutide, interaction = combination) was 8.034%. For the same compound, the “Significant?, fasted blood glucose level” value ([3]; 2-way ANOVA) was “No”, the “% of total variation, fasted blood glucose level” value ([3]; 2-way ANOVA, gavage = reutericyclin, injection = semaglutide, interaction = combination) was 9.241e−005% and the “effect on blood glucose levels” value ([3]; tail prick) was “does not”. The “effect on eating (calories ingested per day)” value [4] was “no noted effect”, the “Significant?, change in body mass” value [5] was “Yes” and the “% of total variation, change in body mass” value ([5]; gavage = reutericyclin 100 μg/kg, injection = semaglutide 1 nmole/kg/day IP, interaction = combination) was 7.893%. The “Significant?, change in weight after withdrawal of the semaglutide” value ([6]; semaglutide stopped at day 26) was “Yes” and the “% of total variation, change in weight after withdrawal of the semaglutide” value ([6]; semaglutide stopped at day 26, gavage = reutericyclin, injection = semaglutide, interaction = combination) was 5.422%.
